In patent US20140038989A1, “TETRAHYDROPYRAZOLO [1,5-A] PYRIMIDINE AS ANTI-TUBERCULOSIS COMPOUNDS” (Glaxo Group Limited, priority 2011, published 2014):
In brackets after ≈: the same amount, converted by molar mass.

Tested on: Mycobacterium tuberculosis H37Rv
Test: Mycobacterium tuberculosis H37Rv Inhibition Assay (Whole Cell Assay)
Format: cell-based
Details: ATCC 25618 / H37Rv, H37Rv strain (ATCC25618), Middlebrook 7H9, six days at 37° C., resazurin fluorescence after 48 hours

Structure (SMILES) | MIC
CCc1ccc([C@H]2C[C@@H](C(F)(F)F)n3ncc(C(=O)NCc4ccc(C)c(C)c4)c3N2)cc1 (relative stereo) [Example 65, Cis-N-(3,4-dimethylbenzyl)-5-(4-ethylphenyl)-7-(trifluoromethyl)-4,5,6,7-tetrahydropyrazolo[1,5-a]pyrimidine-3-carboxamide] | ≤ 1 µM
CCc1ccc([C@H]2C[C@@H](C(F)(F)F)n3ncc(C(=O)NCc4ccc(C(F)(F)F)cc4)c3N2)cc1 (relative stereo) [Example 6, Cis-5-(4-ethylphenyl)-7-(trifluoromethyl)-N-(4-(trifluoromethyl)benzyl)-4,5,6,7-tetrahydropyrazolo[1,5-a]pyrimidine-3-carboxamide] | ≤ 1 µM
CCc1ccc([C@H]2C[C@@H](C(F)(F)F)n3ncc(C(=O)NCc4ccc(OC)nc4)c3N2)cc1 [Example 102, (5R,7S)-5-(4-ethylphenyl)-N-((6-methoxypyridin-3-yl)methyl)-7-(trifluoromethyl)-4,5,6,7-tetrahydropyrazolo[1,5-a]pyrimidine-3-carboxamide] | ≤ 1 µM
CCc1ccc([C@H]2C[C@@H](C(F)(F)F)n3ncc(C(=O)NCC4CCCCC4)c3N2)cc1 (relative stereo) [Example 5, Cis-N-(cyclohexylmethyl)-5-(4-ethylphenyl)-7-(trifluoromethyl)-4,5,6,7-tetrahydropyrazolo[1,5-a]pyrimidine-3-carboxamide] | ≤ 1 µM
CCc1ccc([C@H]2C[C@@H](C(F)(F)F)n3ncc(C(=O)NCc4ccccc4)c3N2)cc1 (relative stereo) [Example 15, Cis-N-benzyl-5-(4-ethylphenyl)-7-(trifluoromethyl)-4,5,6,7-tetrahydropyrazolo[1,5-a]pyrimidine-3-carboxamide] | ≤ 1 µM
COc1cccc(CNC(=O)c2cnn3c2N[C@@H](c2ccc(C)cc2)C[C@H]3C(F)(F)F)c1 (relative stereo) [Example 27, Cis-N-(3-methoxybenzyl)-5-(p-tolyl)-7-(trifluoromethyl)-4,5,6,7-tetrahydropyrazolo[1,5-a]pyrimidine-3-carboxamide] | 1 to 2 µM (≈ 0.444 to 0.889 µg/mL)
Cc1ccc([C@H]2C[C@@H](C(F)(F)F)n3ncc(C(=O)NCc4ccccc4C(F)(F)F)c3N2)cc1 (relative stereo) [Example 43, Cis-5-(p-tolyl)-7-(trifluoromethyl)-N-(2-(trifluoromethyl)benzyl)-4,5,6,7-tetrahydropyrazolo[1,5-a]pyrimidine-3-carboxamide] | > 2 µM
Cc1ccc([C@H]2C[C@@H](C(F)(F)F)n3ncc(C(=O)NCc4ccc(C)c(Cl)c4)c3N2)cc1 (relative stereo) [Example 29, Cis-N-(3-chloro-4-methylbenzyl)-5-(p-tolyl)-7-(trifluoromethyl)-4,5,6,7-tetrahydropyrazolo[1,5-a]pyrimidine-3-carboxamide] | 1 to 2 µM (≈ 0.463 to 0.926 µg/mL)
CCc1ccc(C2CC(C(F)(F)F)n3ncc(C(=O)NCc4ccc5c(c4)OCO5)c3N2)cc1 (stereo not shown) [Example 37, N-(benzo[d][1,3]dioxol-5-ylmethyl)-5-(4-ethylphenyl)-7-(trifluoromethyl)-4,5,6,7-tetrahydropyrazolo[1,5-a]pyrimidine-3-carboxamide] | ≤ 1 µM
Cc1ccc(CNC(=O)c2cnn3c2N[C@@H](c2ccc(C)cc2)C[C@H]3C(F)(F)F)cc1 (relative stereo) [Example 25, Cis-N-(4-methylbenzyl)-5-(p-tolyl)-7-(trifluoromethyl)-4,5,6,7-tetrahydropyrazolo[1,5-a]pyrimidine-3-carboxamide] | ≤ 1 µM
CCc1ccc([C@H]2C[C@@H](C(F)F)n3ncc(C(=O)NCc4ccc5c(c4)OCO5)c3N2)cc1 (relative stereo) [Example 34, Cis-N-(benzo[d][1,3]dioxol-5-ylmethyl)-7-(difluoromethyl)-5-(4-ethylphenyl)-4,5,6,7-tetrahydropyrazolo[1,5-a]pyrimidine-3-carboxamide] | ≤ 1 µM
Cc1ccc([C@H]2C[C@@H](C(F)(F)F)n3ncc(C(=O)NCc4ccco4)c3N2)cc1 (relative stereo) [56′, Cis-N-(furan-2-ylmethyl)-5-(p-tolyl)-7-(trifluoromethyl)-4,5,6,7-tetrahydropyrazolo[1,5-a]pyrimidine-3-carboxamide, reference compound] | > 2 µM
CCc1ccc([C@@H]2C[C@H](C(F)(F)F)n3ncc(C(=O)NCc4ccco4)c3N2)cc1 (single isomer, unassigned) [Example 7b] | > 2 µM
Cc1ccc([C@H]2C[C@@H](C(F)(F)F)n3ncc(C(=O)NCc4cc(F)cc(F)c4)c3N2)cc1 (relative stereo) [Example 30, Cis-N-(3,5-difluorobenzyl)-5-(p-tolyl)-7-(trifluoromethyl)-4,5,6,7-tetrahydropyrazolo[1,5-a]pyrimidine-3-carboxamide] | ≤ 1 µM
CCc1ccc([C@@H]2C[C@H](C(F)(F)F)n3ncc(C(=O)NCc4ccc(OC)cc4)c3N2)cc1 (single isomer, unassigned) [Example 1b] | > 2 µM
CCc1ccc([C@H]2C[C@@H](C(F)(F)F)n3ncc(C(=O)NCc4ccc(C)o4)c3N2)cc1 (relative stereo) [Example 4, Cis-5-(4-ethylphenyl)-N-((5-methylfuran-2-yl)methyl)-7-(trifluoromethyl)-4,5,6,7-tetrahydropyrazolo[1,5-a]pyrimidine-3-carboxamide] | ≤ 1 µM
COc1ccc(C2CC(C(F)(F)F)n3ncc(C(=O)NCc4ccccc4)c3N2)cc1 (stereo not shown) [Example 53, N-benzyl-5-(4-methoxyphenyl)-7-(trifluoromethyl)-4,5,6,7-tetrahydropyrazolo[1,5-a]pyrimidine-3-carboxamide] | > 2 µM
Cc1ccc([C@H]2C[C@@H](C(F)(F)F)n3ncc(C(=O)NCc4ccc(C(F)(F)F)cc4)c3N2)cc1 (relative stereo) [Example 28, Cis-5-(p-tolyl)-7-(trifluoromethyl)-N-(4-(trifluoromethyl)benzyl)-4,5,6,7-tetrahydropyrazolo[1,5-a]pyrimidine-3-carboxamide] | 1 to 2 µM (≈ 0.482 to 0.965 µg/mL)
CCc1ccc([C@H]2C[C@@H](C(C)C)n3ncc(C(=O)NCc4ccc(C)cc4)c3N2)cc1 (relative stereo) [Example 66, Cis-5-(4-ethylphenyl)-7-isopropyl-N-(4-methylbenzyl)-4,5,6,7-tetrahydropyrazolo[1,5-a]pyrimidine-3-carboxamide] | ≤ 1 µM
CCc1ccc([C@H]2C[C@@H](C(F)(F)F)n3ncc(C(=O)NCc4ccc(OC)cc4OC)c3N2)cc1 (relative stereo) [Example 46, Cis-N-(2,4-dimethoxybenzyl)-5-(4-ethylphenyl)-7-(trifluoromethyl)-4,5,6,7-tetrahydropyrazolo[1,5-a]pyrimidine-3-carboxamide] | > 2 µM
CCc1ccc([C@H]2C[C@@H](C(F)(F)F)n3ncc(C(=O)NCc4ccc(OC)cc4)c3N2)cc1 (relative stereo) [Example 1, Cis-5-(4-ethylphenyl)-N-(4-methoxybenzyl)-7-(trifluoromethyl)-4,5,6,7-tetrahydropyrazolo[1,5-a]pyrimidine-3-carboxamide] | ≤ 1 µM
CCc1ccc([C@H]2C[C@@H](C(F)(F)F)n3ncc(C(=O)NCc4ccccc4F)c3N2)cc1 (relative stereo) [Example 62, Cis-5-(4-ethylphenyl)-N-(2-fluorobenzyl)-7-(trifluoromethyl)-4,5,6,7-tetrahydropyrazolo[1,5-a]pyrimidine-3-carboxamide] | ≤ 1 µM
